# Reference: PubChem BioAssay (NCI)
#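 Step 1: Grow cells in 96-well plates. Step 2: Expose to compound for 48 hours at 5 concentrations. Step 3: Interpolate endpoints linearly; if unreached, use highest concentration. The concentration for 50% growth inhibition is given as GI50. TGI denotes the concentration required for complete inhibition of growth.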
# Legend:
# Assay in all cases: NCI tumour cell line growth inhibition, 48 h
# 786-0 renal = test system: 786-0 renal
# A498 renal = test system: A498 renal
# A549 NSCLC = test system: A549 NSCLC
# ACHN renal = test system: ACHN renal
# BT-549 breast = test system: BT-549 breast
# CAKI-1 renal = test system: CAKI-1 renal
# CCRF-CEM leukemia = test system: CCRF-CEM leukemia
# COLO 205 colon = test system: COLO 205 colon
# DU-145 prostate = test system: DU-145 prostate
# HCC-2998 colon = test system: HCC-2998 colon
# HCT-116 colon = test system: HCT-116 colon
# HCT-15 colon = test system: HCT-15 colon
# HL-60(TB) leukemia = test system: HL-60(TB) leukemia
# HOP-62 NSCLC = test system: HOP-62 NSCLC
# HOP-92 NSCLC = test system: HOP-92 NSCLC
# HS 578T breast = test system: HS 578T breast
# HT29 colon = test system: HT29 colon
# IGROV1 ovarian = test system: IGROV1 ovarian
# K-562 leukemia = test system: K-562 leukemia
# KM12 colon = test system: KM12 colon
# LOX IMVI melanoma = test system: LOX IMVI melanoma
# M14 melanoma = test system: M14 melanoma
# MALME-3M melanoma = test system: MALME-3M melanoma
# MCF7 breast = test system: MCF7 breast
# MDA-MB-231 breast = test system: MDA-MB-231 breast
# MDA-MB-435 = test system: MDA-MB-435
# MOLT-4 leukemia = test system: MOLT-4 leukemia
# NCI-H226 lung = test system: NCI-H226 lung
# NCI-H23 lung = test system: NCI-H23 lung
structure (smiles),measurement,setting,value
CC(C)N(Cc1c(F)cccc1F)c1ccc(CO)c(Cl)c1,GI50,786-0 renal,13.7 µM
same,TGI,786-0 renal,29.6 µM
same,GI50,A498 renal,48.8 nM
same,TGI,A498 renal,148 nM
same,GI50,A549 NSCLC,643 nM
same,TGI,A549 NSCLC,13.4 µM
same,GI50,ACHN renal,15.3 µM
same,TGI,ACHN renal,29.9 µM
same,GI50,BT-549 breast,18.7 µM
same,TGI,BT-549 breast,34.3 µM
same,GI50,CAKI-1 renal,1250 nM
same,TGI,CAKI-1 renal,15 µM
same,GI50,CCRF-CEM leukemia,17.8 µM
same,TGI,CCRF-CEM leukemia,40.2 µM
same,GI50,COLO 205 colon,1020 nM
same,TGI,COLO 205 colon,3.02 µM
same,GI50,DU-145 prostate,12.2 µM
same,TGI,DU-145 prostate,27.3 µM
same,GI50,HCC-2998 colon,2060 nM
same,TGI,HCC-2998 colon,13.8 µM
same,GI50,HCT-116 colon,40.8 nM
same,TGI,HCT-116 colon,12.4 µM
same,GI50,HCT-15 colon,11.7 µM
same,TGI,HCT-15 colon,29.1 µM
same,GI50,HL-60(TB) leukemia,3.92 µM
same,TGI,HL-60(TB) leukemia,34.5 µM
same,GI50,HOP-62 NSCLC,553 nM
same,TGI,HOP-62 NSCLC,19.6 µM
same,GI50,HOP-92 NSCLC,111 nM
same,TGI,HOP-92 NSCLC,1730 nM
same,GI50,HS 578T breast,17.7 µM
same,TGI,HS 578T breast,40.8 µM
same,GI50,HT29 colon,2620 nM
same,TGI,HT29 colon,17.5 µM
same,GI50,IGROV1 ovarian,42.4 nM
same,TGI,IGROV1 ovarian,186 nM
same,GI50,K-562 leukemia,354 nM
same,TGI,K-562 leukemia,17.9 µM
same,GI50,KM12 colon,15.8 µM
same,TGI,KM12 colon,33.1 µM
same,GI50,LOX IMVI melanoma,18.5 µM
same,TGI,LOX IMVI melanoma,34.7 µM
same,GI50,M14 melanoma,19.1 µM
same,TGI,M14 melanoma,37.7 µM
same,GI50,MALME-3M melanoma,17.5 µM
same,TGI,MALME-3M melanoma,33.6 µM
same,GI50,MCF7 breast,65.5 nM
same,TGI,MCF7 breast,13.6 µM
same,GI50,MDA-MB-231 breast,15.3 µM
same,TGI,MDA-MB-231 breast,35.8 µM
same,GI50,MDA-MB-435,17.3 µM
same,TGI,MDA-MB-435,34.6 µM
same,GI50,MOLT-4 leukemia,19.5 µM
same,TGI,MOLT-4 leukemia,46 µM
same,GI50,NCI-H226 lung,72.7 nM
same,TGI,NCI-H226 lung,215 nM
same,GI50,NCI-H23 lung,14 µM
